Measurements published in PubChem BioAssay AID180 (DTP/NCI, 2004).
Several values for one entry are separate records, joined by “and”; a condition that tells them apart may be missing. Equal entries are not always repeated.

Tested on: BDF1 mice, Adenocarcinoma 755 s.c., tumor weight T/C
Assay: NCI In Vivo Anticancer Drug Screen. Data for tumor model Adenocarcinoma 755 (subcutaneous) in B6D2F1 (BDF1) mice
Conditions: endpoint: mean tumor weight, higher = larger tumour
Method in brief: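 Transplantable tumor implanted; mice dosed with compound or vehicle; survival or tumor size recorded; ratio of treated to vehicle control reported.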

c1nc(SC2=NCCN2)c2[nH]cnc2n1
T/C (dose: 0.22 mg/kg/injection, schedule: Q01DX011 (ip), vehicle: saline): 104 % of control | T/C (dose: 0.45 mg/kg/injection, schedule: Q01DX011 (ip), vehicle: saline): 72 % of control | T/C (dose: 0.45 mg/kg/injection, schedule: Q01DX011 (oral), vehicle: saline): 100 % of control | T/C (dose: 0.65 mg/kg/injection, schedule: Q01DX011 (ip), vehicle: saline): 71 % of control | T/C (dose: 0.9 mg/kg/injection, schedule: Q01DX011 (ip), vehicle: saline): 61 % of control | T/C (dose: 0.9 mg/kg/injection, schedule: Q01DX011 (oral), vehicle: saline): 73 % of control | T/C (dose: 1.3 mg/kg/injection, schedule: Q01DX011 (ip), vehicle: saline): 74 % of control | T/C (dose: 1.8 mg/kg/injection, schedule: Q01DX011 (ip), vehicle: saline): 15 % of control | T/C (dose: 1.8 mg/kg/injection, schedule: Q01DX011 (oral), vehicle: saline): 48 % of control | T/C (dose: 2.6 mg/kg/injection, schedule: Q01DX011 (ip), vehicle: saline): 23 % of control | T/C (dose: 2.62 mg/kg/injection, schedule: Q01DX011 (ip), vehicle: saline): 4 % of control and 8 % of control | T/C (dose: 3.6 mg/kg/injection, schedule: Q01DX011 (oral), vehicle: saline): 21 % of control | T/C (dose: 5.25 mg/kg/injection, schedule: Q01DX011 (ip), vehicle: saline): 2 % of control and 3 % of control | T/C (dose: 5.25 mg/kg/injection, schedule: Q01DX011 (oral), vehicle: saline): 9 % of control | T/C (dose: 8.0 mg/kg/injection, schedule: Q01DX001 (ip), vehicle: saline): 38 % of control | T/C (dose: 10.5 mg/kg/injection, schedule: Q01DX011 (ip), vehicle: saline): 1 % of control and 2 % of control | T/C (dose: 10.5 mg/kg/injection, schedule: Q01DX011 (oral), vehicle: saline): 2 % of control | T/C (dose: 16.0 mg/kg/injection, schedule: Q01DX001 (ip), vehicle: saline): 57 % of control | T/C (dose: 20.0 mg/kg/injection, schedule: Q01DX011 (ip), vehicle: saline): 31 % of control | T/C (dose: 21.0 mg/kg/injection, schedule: Q01DX011 (ip), vehicle: saline): 2 % of control | T/C (dose: 21.0 mg/kg/injection, schedule: Q01DX011 (oral), vehicle: saline): 1 % of control | T/C (dose: 30.0 mg/kg/injection, schedule: Q01DX011 (ip), vehicle: saline): 14 % of control | T/C (dose: 31.0 mg/kg/injection, schedule: Q01DX001 (ip), vehicle: saline): 29 % of control | T/C (dose: 62.0 mg/kg/injection, schedule: Q01DX001 (ip), vehicle: saline): 38 % of control

CN1CCC(N)=NC1=O
T/C (dose: 15.0 mg/kg/injection, schedule: Q01DX011 (ip), vehicle: saline): 88 % of control | T/C (dose: 31.0 mg/kg/injection, schedule: Q01DX011 (ip), vehicle: saline): 92 % of control | T/C (dose: 62.0 mg/kg/injection, schedule: Q01DX011 (ip), vehicle: saline): 92 % of control | T/C (dose: 125.0 mg/kg/injection, schedule: Q01DX011 (ip), vehicle: saline): 65 % of control | T/C (dose: 250.0 mg/kg/injection, schedule: Q01DX011 (ip), vehicle: saline): 74 % of control

O=c1[nH]c(=O)c2nc(Br)n(C3OC(CO)C(O)C3O)c2[nH]1 (stereo unspecified)
T/C (dose: 30.0 mg/kg/injection, schedule: Q01DX011 (ip), vehicle: carboxymethylcellulose (CMC)): 119 % of control | T/C (dose: 60.0 mg/kg/injection, schedule: Q01DX011 (ip), vehicle: carboxymethylcellulose (CMC)): 105 % of control | T/C (dose: 120.0 mg/kg/injection, schedule: Q01DX011 (ip), vehicle: carboxymethylcellulose (CMC)): 68 % of control | T/C (dose: 240.0 mg/kg/injection, schedule: Q01DX011 (ip), vehicle: carboxymethylcellulose (CMC)): 86 % of control

CSc1nc(N)nc2c1ncn2C1OC(CO)C(O)C1O (stereo unspecified)
T/C (dose: 8.2 mg/kg/injection, schedule: Q01DX011 (ip), vehicle: carboxymethylcellulose (CMC)): 82 % of control | T/C (dose: 16.5 mg/kg/injection, schedule: Q01DX011 (ip), vehicle: carboxymethylcellulose (CMC)): 53 % of control | T/C (dose: 33.0 mg/kg/injection, schedule: Q01DX011 (ip), vehicle: carboxymethylcellulose (CMC)): 20 % of control | T/C (dose: 66.0 mg/kg/injection, schedule: Q01DX011 (ip), vehicle: carboxymethylcellulose (CMC)): 9 % of control | T/C (dose: 66.25 mg/kg/injection, schedule: Q01DX011 (ip), vehicle: methylcellulose (MC)): 9 % of control | T/C (dose: 112.5 mg/kg/injection, schedule: Q01DX011 (ip), vehicle: methylcellulose (MC)): 4 % of control

Clc1ccccc1CSc1ncnc2nc[nH]c12
T/C (dose: 5.0 mg/kg/injection, schedule: Q01DX011 (ip), vehicle: other): 11 % of control | T/C (dose: 10.0 mg/kg/injection, schedule: Q01DX011 (ip), vehicle: other): 2 % of control | T/C (dose: 31.0 mg/kg/injection, schedule: Q01DX011 (ip), vehicle: other): 12 % of control | T/C (dose: 62.0 mg/kg/injection, schedule: Q01DX011 (ip), vehicle: other): 3 % of control | T/C (dose: 125.0 mg/kg/injection, schedule: Q01DX011 (ip), vehicle: other): 3 % of control

CC(=O)[C@H]1[C@H](C)C[C@H]2[C@@H]3CCC4=CC(=O)CC[C@]4(C)[C@@]3(F)[C@@H](O)C[C@@]21C
T/C (dose: 5.31 mg/kg/injection, schedule: Q01DX011 (sc), vehicle: steriod suspending solution): 108 % of control | T/C (dose: 6.0 mg/kg/injection, schedule: Q01DX011 (sc), vehicle: steriod suspending solution): 62 % of control | T/C (dose: 10.62 mg/kg/injection, schedule: Q01DX011 (sc), vehicle: steriod suspending solution): 85 % of control | T/C (dose: 12.0 mg/kg/injection, schedule: Q01DX011 (sc), vehicle: steriod suspending solution): 27 % of control | T/C (dose: 21.25 mg/kg/injection, schedule: Q01DX011 (sc), vehicle: steriod suspending solution): 86 % of control | T/C (dose: 25.0 mg/kg/injection, schedule: Q01DX011 (sc), vehicle: steriod suspending solution): 23 % of control | T/C (dose: 42.5 mg/kg/injection, schedule: Q01DX011 (sc), vehicle: steriod suspending solution): 39 % of control and 48 % of control | T/C (dose: 50.0 mg/kg/injection, schedule: Q01DX011 (sc), vehicle: steriod suspending solution): 16 % of control | T/C (dose: 85.0 mg/kg/injection, schedule: Q01DX011 (sc), vehicle: steriod suspending solution): 17 % of control | T/C (dose: 100.0 mg/kg/injection, schedule: Q01DX011 (sc), vehicle: steriod suspending solution): 12 % of control | T/C (dose: 170.0 mg/kg/injection, schedule: Q01DX011 (sc), vehicle: steriod suspending solution): 18 % of control | T/C (dose: 340.0 mg/kg/injection, schedule: Q01DX011 (sc), vehicle: steriod suspending solution): 18 % of control and 23 % of control | T/C (dose: 680.0 mg/kg/injection, schedule: Q01DX011 (sc), vehicle: steriod suspending solution): 8 % of control and 26 % of control | T/C (dose: 1360.0 mg/kg/injection, schedule: Q01DX011 (sc), vehicle: steriod suspending solution): 4 % of control

O=C(Nc1ccc(C2=NCCN2)cc1)c1ccc(C(=O)Nc2ccc(C3=NCCN3)cc2)cc1
T/C (dose: 3.3 mg/kg/injection, schedule: Q01DX011 (ip), vehicle: methylcellulose (MC)): 122 % of control | T/C (dose: 6.5 mg/kg/injection, schedule: Q01DX011 (ip), vehicle: methylcellulose (MC)): 113 % of control

NS(=O)(=O)c1nc2nc[nH]c2c(=O)[nH]1
T/C (dose: 25.0 mg/kg/injection, schedule: Q01DX011 (ip), vehicle: carboxymethylcellulose (CMC)): 66 % of control | T/C (dose: 75.0 mg/kg/injection, schedule: Q01DX011 (ip), vehicle: carboxymethylcellulose (CMC)): 78 % of control | T/C (dose: 225.0 mg/kg/injection, schedule: Q01DX011 (ip), vehicle: carboxymethylcellulose (CMC)): 61 % of control

c1ccc(N2N=C3N(c4ccccc4)C2N3c2ccccc2)cc1
T/C (dose: 15.0 mg/kg/injection, schedule: Q01DX011 (ip), vehicle: other): 87 % of control

c1ccc2nc(-c3cc4ccccc4s3)ccc2c1
T/C (dose: 133.0 mg/kg/injection, schedule: Q01DX011 (ip), vehicle: carboxymethylcellulose (CMC)): 42 % of control | T/C (dose: 133.0 mg/kg/injection, schedule: Q01DX011 (ip), vehicle: saline): 42 % of control | T/C (dose: 200.0 mg/kg/injection, schedule: Q01DX011 (ip), vehicle: carboxymethylcellulose (CMC)): 53 % of control | T/C (dose: 200.0 mg/kg/injection, schedule: Q01DX011 (ip), vehicle: saline): 39 % of control | T/C (dose: 300.0 mg/kg/injection, schedule: Q01DX011 (ip), vehicle: carboxymethylcellulose (CMC)): 24 % of control | T/C (dose: 300.0 mg/kg/injection, schedule: Q01DX011 (ip), vehicle: saline): 34 % of control | T/C (dose: 450.0 mg/kg/injection, schedule: Q01DX011 (ip), vehicle: saline): 21 % of control
